Assay results reported in patent US9182397B2, “Immunoassay for detecting antibiotics” (DSM IP ASSETS B.V., priority 2011, dated 2015).

Key:
Set-up in all cases: key: 0: no intensity; 1: low intensity; 2: medium intensity; 3: high intensity
[1] = test system: Penicillin binding protein purified from Bacillus stearothermophilus; assay: Detection of Penicillin G after storage of the test device at 4° C. (Example 25)
Method: (§1) A nitrocellulose HF90 membrane (Millipore; length 25 mm) was used as a detection region. The membrane was glued to a polystyrene laminated card (thickness 0.254 mm) 8 mm from the proximal end of the card. Next, the detection zone and control zone were applied onto the nitrocellulose membrane. The detection zone was applied by dispensing 1 mg/ml of a 7ACA-spacer-BSA conjugate in 20 mM KPO4-buffer (pH 7.5) with a Biodot Dispense workstation XYZ 3050 with frontline at 0.2 μl/cm. The control zone was applied by dispensing 0.15 mg/ml of an anti-IgY antibody in 20 mM KPO4-buffer (pH 7.5) comprising 0.675 mg/ml BSA, 5% w/v saccharose and 20 mM NaCl with a Biodot Dispense workstation XYZ 3050 with frontline at 0.8 μl/cm. After drying of the zones, the nitrocellulose membrane was blocked by spraying a solution comprising 10 mM Tris buffer (pH 8) comprising 2% w/v BSA and 0.05% w/v Tween-20 using a Biodot Dispense workstation XYZ 3050 with airjet 3×. The solution was sprayed onto the membrane at a distance of 2 mm below the detection zone. Thereafter, the sample receiving region (VF2 membrane from Millipore; length 1 cm) was glued at the proximal end of the card overlapping 2 mm with the nitrocellulose membrane. The absorbing region (10038 membrane from Millipore; length 20 mm) was glued at the distal end of the card with an overlap of 2 mm on the nitrocellulose membrane. The obtained cards were dried at 37° C. in a dry atmosphere (0% relative humidity). The card was cut in strips of 5.2 mm width and kept at a dry atmosphere (0% relative humidity).
(§2) Streptavidin-coated gold particles were synthesized by reacting colloidal gold (diameter 40 nm; 1 OD/ml) with 10 μg/ml streptavidin. Next, the obtained solution was concentrated by tangential flow filtration, washed and stored in a Tris buffer (pH 8) including NaCN. Penicillin binding protein purified from Bacillus stearothermophilus was biotinylated (1:4) with D-biotinyl-epsilon-aminocaproic acid-N-hydroxysuccinimide ester. Next, the penicillin binding protein-gold conjugate was synthesized by reacting 1.5 μg biotinylated penicillin binding protein with 1 OD streptavidin-coated gold particles for 1 hour, followed by centrifugation at 10,000×g for 5 minutes and resuspension of the obtained pellet in 45 mM bicarbonate buffer comprising 0.1% w/v Triton X-100 (pH 9.6).
(§3) Thereafter, 140-200 mOD of the penicillin binding protein-gold conjugate and 5-20 mOD of the IgY-gold conjugate was solubilized in 100 μl buffer (80 mM Tris buffer comprising 0.01% w/v Triton-X-100, 0.4% w/v BSA, 5% v/v glycerin and 2% w/v saccharose (pH 8.5)) and 0.75 μl of the solution was dispensed per tube and dried for 12 hours at 40° C. The obtained tubes were sealed.
(§4) 150 μl of spiked milk was added per tube containing the dried conjugates. The concentration of penicillin G in the added milk varied from 0 to 4 ng/g (tube 1: 0 ng/g; […]; tube 2: 2 ng/g; tube 3: 3 ng/g; and tube 4: 4 ng/g). The obtained liquid composition was incubated for 2 minutes at 64° C. in an incubator. A test device was put into the tube and incubated for 3 minutes at 64° C. in the incubator. The result was read by eye.
The test devices were produced as described above in Examples 1 and 2 and stored at 4° C. At different time periods after production, the test device was used to measure penicillin G. The test was done essentially as described in Example 3.

[2] = test system: Penicillin binding protein purified from Bacillus stearothermophilus; assay: Detection of Penicillin G after storage of the test device at −20° C. or 30° C. (Example 26)
Method: as §1, §2, §3, §4
The test devices were produced as described above in Examples 1 and 2 and stored at different temperatures (−20° C. and 30° C.). At different time periods after production, the test device was used to detect penicillin G. The test was done essentially as described in Example 3.

[3] = test system: Penicillin binding protein purified from Bacillus stearothermophilus; assay: Detection of Penicillin G after different shaking steps (Example 28)
Method: as §1, §2, §3, §4
The test was done essentially as described in Example 3, with the proviso that different shaking steps were applied. […]

[4] = test system: Penicillin binding protein purified from Bacillus stearothermophilus; assay: Detection of Penicillin G with milk having a different initial temperature (Example 30)
Method: as §1, §2, §3, §4
The test was done essentially as described in Example 3, with the proviso that the test was done with milk having an initial different temperature (0° C., 4° C., 20° C. or 45° C.). The milk was allowed to reach room temperature shortly before the test was done.

SMILES: CC1(C)S[C@@H]2[C@H](NC(=O)Cc3ccccc3)C(=O)N2[C@H]1C(=O)O [Penicillin G]
- Intensity of detection zone ([1]; Pen G 3 ppb, test device stored 0 weeks at 4° C.): 2
- Intensity of detection zone ([1]; Pen G 3 ppb, test device stored 4 weeks at 4° C.): 2
- Intensity of detection zone ([1]; Pen G 3 ppb, test device stored 7 weeks at 4° C.): 2
- Intensity of detection zone ([1]; Pen G 3 ppb, test device stored 15 weeks at 4° C.): 2
- Intensity of detection zone ([1]; Pen G 3 ppb, test device stored 18 weeks at 4° C.): 2
- Intensity of detection zone ([1]; Pen G 3 ppb, test device stored 26 weeks at 4° C.): 2
- Intensity of detection zone ([1]; Pen G 4 ppb, test device stored 0 weeks at 4° C.): 1
- Intensity of detection zone ([1]; Pen G 4 ppb, test device stored 4 weeks at 4° C.): 1
- Intensity of detection zone ([1]; Pen G 4 ppb, test device stored 7 weeks at 4° C.): 1
- Intensity of detection zone ([1]; Pen G 4 ppb, test device stored 15 weeks at 4° C.): 1
- Intensity of detection zone ([1]; Pen G 4 ppb, test device stored 18 weeks at 4° C.): 1
- Intensity of detection zone ([1]; Pen G 4 ppb, test device stored 26 weeks at 4° C.): 1
- Intensity of detection zone ([2]; Pen G 3 ppb, test device stored 0 days at 30° C.): 2
- Intensity of detection zone ([2]; Pen G 3 ppb, test device stored 0 days at −20° C.): 2
- Intensity of detection zone ([2]; Pen G 3 ppb, test device stored 3 days at 30° C.): 2
- Intensity of detection zone ([2]; Pen G 3 ppb, test device stored 3 days at −20° C.): 2
- Intensity of detection zone ([2]; Pen G 3 ppb, test device stored 7 days at 30° C.): 2
- Intensity of detection zone ([2]; Pen G 3 ppb, test device stored 7 days at −20° C.): 2
- Intensity of detection zone ([2]; Pen G 3 ppb, test device stored 28 days at 30° C.): 1
- Intensity of detection zone ([2]; Pen G 3 ppb, test device stored 28 days at −20° C.): 2
- Intensity of detection zone ([2]; Pen G 4 ppb, test device stored 0 days at 30° C.): 1
- Intensity of detection zone ([2]; Pen G 4 ppb, test device stored 0 days at −20° C.): 1
- Intensity of detection zone ([2]; Pen G 4 ppb, test device stored 3 days at 30° C.): 1
- Intensity of detection zone ([2]; Pen G 4 ppb, test device stored 3 days at −20° C.): 1
- Intensity of detection zone ([2]; Pen G 4 ppb, test device stored 7 days at 30° C.): 1
- Intensity of detection zone ([2]; Pen G 4 ppb, test device stored 7 days at −20° C.): 1
- Intensity of detection zone ([2]; Pen G 4 ppb, test device stored 28 days at 30° C.): 0
- Intensity of detection zone ([2]; Pen G 4 ppb, test device stored 28 days at −20° C.): 1
- Intensity of detection zone ([3]; Pen G 3 ppb, Method a, no shaking steps (0 ppb gave 2, control zone 1)): 1
- Intensity of detection zone ([3]; Pen G 3 ppb, Method b, one shaking step (10 seconds) after incubation): 2
- Intensity of detection zone ([3]; Pen G 3 ppb, Method c, one shaking step (10 seconds) before incubation): 2
- Intensity of detection zone ([3]; Pen G 3 ppb, Method d, shaking 5 seconds before and 10 seconds after incubation): 2
- Intensity of detection zone ([3]; Pen G 3 ppb, Method e, shaking 10 seconds before and 10 seconds after incubation): 2
- Intensity of detection zone ([3]; Pen G 4 ppb, Method a, no shaking steps (0 ppb gave 2, control zone 1)): 1
- Intensity of detection zone ([3]; Pen G 4 ppb, Method b, one shaking step (10 seconds) after incubation): 1
- Intensity of detection zone ([3]; Pen G 4 ppb, Method c, one shaking step (10 seconds) before incubation): 1
- Intensity of detection zone ([3]; Pen G 4 ppb, Method d, shaking 5 seconds before and 10 seconds after incubation): 1
- Intensity of detection zone ([3]; Pen G 4 ppb, Method e, shaking 10 seconds before and 10 seconds after incubation): 1
- Intensity of detection zone ([4]; Pen G 3 ppb, initial milk temperature 0 ° C.): 2
- Intensity of detection zone ([4]; Pen G 3 ppb, initial milk temperature 4 ° C.): 2
- Intensity of detection zone ([4]; Pen G 3 ppb, initial milk temperature 20 ° C.): 2
- Intensity of detection zone ([4]; Pen G 3 ppb, initial milk temperature 45 ° C.): 2
- Intensity of detection zone ([4]; Pen G 4 ppb, initial milk temperature 0 ° C.): 1
- Intensity of detection zone ([4]; Pen G 4 ppb, initial milk temperature 4 ° C.): 1
- Intensity of detection zone ([4]; Pen G 4 ppb, initial milk temperature 20 ° C.): 1
- Intensity of detection zone ([4]; Pen G 4 ppb, initial milk temperature 45 ° C.): 1
